According to patent US20230414611A1, “REFINED USES OF GABA A RECEPTOR MODULATORS IN TREATMENT OF FRAGILE X SYNDROME” (CHILDREN'S HOSPITAL MEDICAL CENTER, priority 2020, published 2023):
Entries after “also recorded” stand apart in the source; their conditions may differ.

Assays:
Assay type in all cases: in vivo, human
[1] = system: adults with Fragile X Syndrome (FXS); assay: RBANS list learning in AZD7325 clinical study; design: key to RBANS list learning, difference of least squares means, Estimate: Baseline - Low: difference in raw score (number of words remembered); key to RBANS-LL score: raw score = number of words remembered; higher is better; conditions: for RBANS-LL score: undetectable FMRP male subjects (n=5), mean ± SD
Description: (§1) This study aims at investigating the safety, tolerability, and blood pharmacodynamics of treatment with oral administration of AZD7325 in adults with Fragile X Syndrome (FXS). This study also investigates measures of efficacy and biomarkers during treatment.
(§2) The treatment conditions are provided Table 2 below:
Table 5 below summarizes clinical measure RBANS List Learning scores from the 5 “undetectable” FMRP male subjects. RBANS List Learning is a verbal working memory task and raw scores provided indicate number of words remembered, with higher scores indicating more number of words remembered. Group average and standard deviation were obtained cross subjects per treatment type (Placebo/Low dose/High dose) and per visit, which are 1) baseline: before intake, 2) acute: after the first dosage, and 3) chronic: post 2-week daily dosage. Higher scores are clinically better.

[2] = system: adults with Fragile X Syndrome (FXS); assay: Aberrant Behavior Checklist (ABC / ABC-C subscales); conditions: for ABC_C_Subscale_1 Irritability / ABC_C_Subscale_2 Lethargy / ABC_C_Subscale_3 Stereotypy / ABC_C_Subscale_4 Hyperactivity / ABC_C_Subscale_5 Inappropriate Speech: undetectable FMRP males (n=5), mean ± SD
Description: Secondary Outcome Measures: • Change in the social withdrawal subscale score of the Aberrant Behavior Checklist (ABC) through the end of the study, approximately 12 weeks. The ABC is the gold standard parent/caregiver reported behavioral outcome measure for use in development disability clinical trials. • Change in the Pediatric Anxiety Rating Scale (PARS) through the end of the study, approximately 12 weeks. The PARS is the gold standard parent/caregiver reported anxiety outcome measure for use in Fragile X Syndrome clinical trials.
The Aberrant Behavior Checklist (ABC) is a standardized rating scale used for assessing problematic behavior designed for use in developmental disabilities, with validity for use in FXS (CITE). ABC-C is the original factor structure with 5 subscales: Irritability, Lethargy, Stereotypy, Hyperactivity, and Inappropriate Speech. See, e.g., Aman et al., J. Child Adolesc Psychopharmacol. 30(8):512-521 (2020), the relevant disclosures of which are incorporated by reference for the subject matter and purpose referenced herein. ABC was only assessed chronically (two weeks after treatment). Overall, no indication that ABC changed during chronic phase.

[3] = system: adults with Fragile X Syndrome (FXS); assay: ABC-FXS subscales; design: scale not given here; conditions: undetectable FMRP males (n=5), mean ± SD
Description: Tables 11-16 below summarize alternative […] scoring for the FXS patient treated with AZD7325. ABC-FXS was created for use within this population to take into account FXS-specific symptoms, and has six subscales: Irritability, Social Unresponsiveness/Lethargy, Stereotypy, Hyperactivity, Inappropriate Speech, and Social Avoidance.

[4] = system: adults with Fragile X Syndrome (FXS); assay: Clinical response and adverse effects by peripheral FMRP status
Method: as §1, §2
Peripheral levels FMRP proteins in the patients were measured by an immunoassay using an antibody specific to FMRP. A fair percentage of males with FXS show mosaicism or a mix of […] and mutation cells. FIG. 3. Peripheral blood FMRP levels from the study participants are shown in Table 4 below (measured using dried blood spot samples using Luminex® Assay; see Example 3 below). The levels of FMRP measured using dried blood spot as disclosed herein are estimated to be about 7 folds higher than the FMRP levels in the blood of the same patient.

[5] = system: adults with Fragile X Syndrome (FXS); assay: RBANS list learning in AZD7325 clinical study; design: key to RBANS list learning, difference of least squares means, Estimate: Low - High / RBANS list learning, difference of least squares means, Estimate: Baseline - High: difference in raw score (number of words remembered); conditions: for RBANS_LL change: chronic
[6] = subgroup of males (outlier removed), low dose 5 mg twice per day oral
[7] = low dose, patients having detectable peripheral FMRP
[8] = subgroup of males (outlier removed), high dose 15 mg twice per day oral

## CCCNC(=O)c1nnc2c(-c3c(F)cccc3OC)cccc2c1N [AZD7325, 4-amino-8-(2-fluoro-6-methoxyphenyl)-N-propylcinnoline-3-carboxamide]
[1]; all eligible subjects, low dose
  RBANS list learning scores, trend: might improve
[1]; high dose
  performance on RBANS: dose limiting effect
[1]; low dose, chronic, nondetectable FMRP subjects
  RBANS_LL change: all positive trended
[1]; low dose, males
  memory as measured by the RBANS assay: improved memory
[1]; subgroup
  RBANS LL score increase, low dose compared to high dose: e Low dose had greater score increase (benefit) than high dose, separating groups.
[1]; [6]
  RBANS list learning, difference of least squares means, Estimate: Baseline - Low: −2.75
[1]; subgroup, high dose
  change of RBANS LL from baseline: c No change from baseline with high dose (direction is toward worsening, −2)
[1]; subgroup, low dose
  increase (benefit) of RBANS LL compared to placebo: d Low dose demonstrated increase of nearly 4 (benefit) compared to placebo
  increase (benefit) of RBANS LL from baseline: b Low dose in this subgroup demonstrated an increase (benefit) of +2.75 of RBANS LL from baseline
[1]; high dose, acute (after the first dosage)
  RBANS-LL score: 10.4 ± 7.40
[1]; high dose, baseline (before intake)
  RBANS-LL score: 14.8 ± 8.32
[1]; high dose, chronic (post 2-week daily dosage)
  RBANS-LL score: 12.2 ± 6.83
[1]; low dose, acute (after the first dosage)
  RBANS-LL score: 13.2 ± 3.11
[1]; low dose, baseline (before intake)
  RBANS-LL score: 10.6 ± 5.22
[1]; low dose, chronic (post 2-week daily dosage)
  RBANS-LL score: 14.6 ± 6.80
[2]; [7]
  ABC lethargy and social withdrawal: increases
[2]; low dose, patients having undetectable peripheral FMRP
  ABC lethargy and social withdrawal: reduction; also recorded: reduces
[2]; low dose, regardless of FMRP status (trending), baseline to chronic
  ABC irritability: reduction; also recorded: reduces
[2]; high dose, baseline
  ABC_C_Subscale_1 Irritability: 7.6 ± 7.44
  ABC_C_Subscale_2 Lethargy: 3.2 ± 3.11
  ABC_C_Subscale_3 Stereotypy: 5.0 ± 1.87
  ABC_C_Subscale_4 Hyperactivity: 9.4 ± 10.74
  ABC_C_Subscale_5 Inappropriate Speech: 5.6 ± 4.56
[2]; high dose, chronic
  ABC_C_Subscale_1 Irritability: 7.2 ± 5.36
  ABC_C_Subscale_2 Lethargy: 1.8 ± 1.48
  ABC_C_Subscale_3 Stereotypy: 3.4 ± 0.55
  ABC_C_Subscale_4 Hyperactivity: 7.0 ± 9.06
  ABC_C_Subscale_5 Inappropriate Speech: 4.4 ± 3.78
[2]; low dose, baseline
  ABC_C_Subscale_1 Irritability: 7.6 ± 7.44
  ABC_C_Subscale_2 Lethargy: 3.6 ± 2.97
  ABC_C_Subscale_3 Stereotypy: 3.8 ± 2.28
  ABC_C_Subscale_4 Hyperactivity: 7.8 ± 7.16
  ABC_C_Subscale_5 Inappropriate Speech: 5.4 ± 4.16
[2]; low dose, chronic
  ABC_C_Subscale_1 Irritability: 7.4 ± 8.02
  ABC_C_Subscale_2 Lethargy: 4.6 ± 2.70
  ABC_C_Subscale_3 Stereotypy: 4.6 ± 3.05
  ABC_C_Subscale_4 Hyperactivity: 7.2 ± 8.07
  ABC_C_Subscale_5 Inappropriate Speech: 4.6 ± 3.29
[3]; high dose, baseline
  ABC_FXS_Subscale_1 Irritability: 10.2 ± 10.52
  ABC_FXS_Subscale_2 Socially Unresponsive/Lethargic: 1.8 ± 1.92
  ABC_FXS_Subscale_3 Stereotypy: 5.0 ± 1.87
  ABC_FXS_Subscale_4 Hyperactivity: 6.4 ± 6.80
  ABC_FXS_Subscale_5 Inappropriate Speech: 5.6 ± 4.56
  ABC_FXS_Subscale_6 Social Avoidance: 1.2 ± 1.79
[3]; high dose, chronic
  ABC_FXS_Subscale_1 Irritability: 9.2 ± 7.05
  ABC_FXS_Subscale_2 Socially Unresponsive/Lethargic: 1.0 ± 1.22
  ABC_FXS_Subscale_3 Stereotypy: 3.4 ± 0.55
  ABC_FXS_Subscale_4 Hyperactivity: 4.6 ± 6.31
  ABC_FXS_Subscale_5 Inappropriate Speech: 4.4 ± 3.78
  ABC_FXS_Subscale_6 Social Avoidance: 0.6 ± 0.89
[3]; low dose, baseline
  ABC_FXS_Subscale_1 Irritability: 9.8 ± 8.23
  ABC_FXS_Subscale_2 Socially Unresponsive/Lethargic: 2.4 ± 1.52
  ABC_FXS_Subscale_3 Stereotypy: 3.8 ± 2.28
  ABC_FXS_Subscale_4 Hyperactivity: 4.2 ± 3.77
  ABC_FXS_Subscale_5 Inappropriate Speech: 5.4 ± 4.16
  ABC_FXS_Subscale_6 Social Avoidance: 2.0 ± 1.87
[3]; low dose, chronic
  ABC_FXS_Subscale_1 Irritability: 9.4 ± 9.99
  ABC_FXS_Subscale_2 Socially Unresponsive/Lethargic: 2.2 ± 2.39
  ABC_FXS_Subscale_3 Stereotypy: 4.6 ± 3.05
  ABC_FXS_Subscale_4 Hyperactivity: 4.4 ± 4.98
  ABC_FXS_Subscale_5 Inappropriate Speech: 4.6 ± 3.29
  ABC_FXS_Subscale_6 Social Avoidance: 2.4 ± 1.82
[4]; human, in vivo
  low dose (5 mg BID) versus high dose (15 mg BID) in terms of adverse effects and signal (treatment efficacy): superior over high dose
[4]; low dose (5 mg twice per day), patients having undetectable peripheral FMRP
  responsiveness to treatment: responsive; also recorded: showed responsiveness
[4]; low dose, male patients having undetectable peripheral FMRP
  clinical improvement: Clinical improvement
[4]; [7]
  responsiveness to treatment: not responsive
[5]; all eligible subjects (p=0.09)
  effect of drug on RBANS list learning: trending effect
[5]; low dose, female detectable FMRP subjects
  RBANS_LL change: improves RBANS growth in 2 of the three female detectable subjects
[5]; low dose, male detectable FMRP subjects
  RBANS_LL change: bi-directional distributed and overlap with placebo
[5]; low dose, subgroup of males following removal of an outlier
  effect on RBANS list learning: significant beneficial effect
[5]; [8]
  RBANS list learning, difference of least squares means, Estimate: Baseline - High: 2.09
  RBANS list learning, difference of least squares means, Estimate: Placebo - High: 0.84
[5]; [6]
  RBANS list learning, difference of least squares means, Estimate: Placebo - Low: −4.00
[5]; subgroup of males (outlier removed), low dose vs high dose
  RBANS list learning, difference of least squares means, Estimate: Low - High: 4.84
